pIC50, pKi: −log10 of the molar value.
Key:
[1] = biological target: Voltage-gated inwardly rectifying potassium channel KCNH2 (Homo sapiens, UniProt Q12809); assay: Inhibition of human ERG
[2] = biological target: T1, Sterol O-acyltransferase 1 (Homo sapiens, UniProt P35610)
T1 sequence (P35610 whole entry): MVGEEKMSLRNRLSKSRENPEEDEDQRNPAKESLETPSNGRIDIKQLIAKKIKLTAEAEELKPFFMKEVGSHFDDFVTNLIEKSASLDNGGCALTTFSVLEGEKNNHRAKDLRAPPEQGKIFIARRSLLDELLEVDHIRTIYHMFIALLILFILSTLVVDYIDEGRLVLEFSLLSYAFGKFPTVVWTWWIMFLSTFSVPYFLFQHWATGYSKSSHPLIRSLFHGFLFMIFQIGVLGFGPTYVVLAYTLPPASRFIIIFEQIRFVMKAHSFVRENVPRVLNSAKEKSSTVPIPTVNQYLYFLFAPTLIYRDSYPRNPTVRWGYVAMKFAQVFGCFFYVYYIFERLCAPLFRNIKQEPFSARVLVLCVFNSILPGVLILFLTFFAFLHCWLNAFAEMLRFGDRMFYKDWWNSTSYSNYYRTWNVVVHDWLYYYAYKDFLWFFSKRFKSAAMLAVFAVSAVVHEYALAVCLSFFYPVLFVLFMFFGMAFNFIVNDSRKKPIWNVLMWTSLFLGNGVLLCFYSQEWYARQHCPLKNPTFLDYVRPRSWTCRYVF
Description: Inhibition of human ACAT1

[3] = biological target: T2, Diacylglycerol O-acyltransferase 1 (Homo sapiens, UniProt O75907)
T2 sequence (O75907 whole entry): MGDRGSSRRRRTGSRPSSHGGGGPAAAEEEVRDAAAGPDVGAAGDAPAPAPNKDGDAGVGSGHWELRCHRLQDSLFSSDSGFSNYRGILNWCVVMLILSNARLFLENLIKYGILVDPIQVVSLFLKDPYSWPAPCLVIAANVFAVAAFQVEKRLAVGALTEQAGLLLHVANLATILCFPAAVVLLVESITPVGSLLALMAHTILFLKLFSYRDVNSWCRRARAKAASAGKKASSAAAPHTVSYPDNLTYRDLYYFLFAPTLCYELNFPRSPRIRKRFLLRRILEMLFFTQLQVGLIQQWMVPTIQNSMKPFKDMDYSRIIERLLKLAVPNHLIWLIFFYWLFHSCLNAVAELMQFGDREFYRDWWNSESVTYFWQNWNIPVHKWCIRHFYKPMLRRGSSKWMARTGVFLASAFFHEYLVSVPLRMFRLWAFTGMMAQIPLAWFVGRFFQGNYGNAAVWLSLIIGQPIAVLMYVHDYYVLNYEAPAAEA
Description: Inhibition of human DGAT1

[4] = biological target: T3, Diacylglycerol O-acyltransferase 1 (Mus musculus, UniProt Q9Z2A7)
T3 sequence (Q9Z2A7 whole entry): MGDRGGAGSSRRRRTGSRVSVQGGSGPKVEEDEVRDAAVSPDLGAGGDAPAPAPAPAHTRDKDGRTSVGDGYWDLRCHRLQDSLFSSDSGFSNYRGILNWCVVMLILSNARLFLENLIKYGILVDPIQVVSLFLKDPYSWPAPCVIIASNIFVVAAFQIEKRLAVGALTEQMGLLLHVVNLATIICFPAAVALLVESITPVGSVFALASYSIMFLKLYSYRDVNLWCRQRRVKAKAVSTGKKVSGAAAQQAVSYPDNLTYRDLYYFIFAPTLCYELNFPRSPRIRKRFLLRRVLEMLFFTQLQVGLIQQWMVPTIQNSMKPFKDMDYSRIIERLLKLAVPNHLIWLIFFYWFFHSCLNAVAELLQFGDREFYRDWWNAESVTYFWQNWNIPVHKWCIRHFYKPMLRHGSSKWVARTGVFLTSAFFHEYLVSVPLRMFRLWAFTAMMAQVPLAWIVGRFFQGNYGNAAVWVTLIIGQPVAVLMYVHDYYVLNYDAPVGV
Description: Inhibition of mouse DGAT1

[5] = test system: Mus musculus; assay: Reduction in lipid excursion in mouse at 3 mg/kg, po administered as single dose measured after 18 hrs by lipid tolerance test relative to control; assay type: functional; set-up: scale not given: the % may be the effect or the level left
[6] = biological target: T4, Adenosine receptor A2a (Homo sapiens, UniProt P29274); assay: Activity against human A2AR assessed as inhibition of cAMP accumulation by cAMP functional assay
T4 sequence (P29274 whole entry): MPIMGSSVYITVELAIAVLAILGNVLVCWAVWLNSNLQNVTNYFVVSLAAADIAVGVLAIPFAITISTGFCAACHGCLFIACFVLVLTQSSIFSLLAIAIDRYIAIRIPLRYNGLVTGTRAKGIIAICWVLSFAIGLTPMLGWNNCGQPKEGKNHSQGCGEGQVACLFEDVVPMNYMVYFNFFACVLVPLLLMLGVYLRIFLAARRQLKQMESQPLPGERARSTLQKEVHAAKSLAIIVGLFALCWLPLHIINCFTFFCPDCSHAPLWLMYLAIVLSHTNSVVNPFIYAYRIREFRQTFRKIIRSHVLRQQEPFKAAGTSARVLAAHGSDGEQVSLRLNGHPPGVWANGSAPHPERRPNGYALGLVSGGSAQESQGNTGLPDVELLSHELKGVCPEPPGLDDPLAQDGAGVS

[7] = Distribution coefficient, log D of compound; assay type: physicochemical; conditions: octanol/water
[8] = test system: Mus musculus; assay: Reduction in lipid excursion in mouse at 10 mg/kg, po QD measured at 18 hrs post dose by lipid tolerance test relative to control; assay type: functional; set-up: scale not given: the % may be the effect or the level left
[9] = Mutagenicity in Salmonella typhimurium TA100 by Ames test; assay type: toxicity; conditions: salmonella enterica subsp. enterica serovar typhimurium
[10] = Mutagenicity in Salmonella typhimurium TA98 by Ames test; assay type: toxicity; conditions: salmonella enterica subsp. enterica serovar typhimurium
[11] = Mutagenicity in Salmonella typhimurium […] by Ames test; assay type: toxicity; conditions: salmonella enterica subsp. enterica serovar typhimurium
[12] = species on record: Homo sapiens; assay: Ratio of IC50 for human ACAT1 to IC50 for human DGAT1
[13] = Solubility of the compound at pH 7; assay type: physicochemical; conditions: buffer
[14] = biological target: T4, Adenosine receptor A2a; assay: Activity at human Adenosine A2A receptor; assay type: ADME

Voltage-gated inwardly rectifying potassium channel KCNH2, sequence (Q12809 whole entry): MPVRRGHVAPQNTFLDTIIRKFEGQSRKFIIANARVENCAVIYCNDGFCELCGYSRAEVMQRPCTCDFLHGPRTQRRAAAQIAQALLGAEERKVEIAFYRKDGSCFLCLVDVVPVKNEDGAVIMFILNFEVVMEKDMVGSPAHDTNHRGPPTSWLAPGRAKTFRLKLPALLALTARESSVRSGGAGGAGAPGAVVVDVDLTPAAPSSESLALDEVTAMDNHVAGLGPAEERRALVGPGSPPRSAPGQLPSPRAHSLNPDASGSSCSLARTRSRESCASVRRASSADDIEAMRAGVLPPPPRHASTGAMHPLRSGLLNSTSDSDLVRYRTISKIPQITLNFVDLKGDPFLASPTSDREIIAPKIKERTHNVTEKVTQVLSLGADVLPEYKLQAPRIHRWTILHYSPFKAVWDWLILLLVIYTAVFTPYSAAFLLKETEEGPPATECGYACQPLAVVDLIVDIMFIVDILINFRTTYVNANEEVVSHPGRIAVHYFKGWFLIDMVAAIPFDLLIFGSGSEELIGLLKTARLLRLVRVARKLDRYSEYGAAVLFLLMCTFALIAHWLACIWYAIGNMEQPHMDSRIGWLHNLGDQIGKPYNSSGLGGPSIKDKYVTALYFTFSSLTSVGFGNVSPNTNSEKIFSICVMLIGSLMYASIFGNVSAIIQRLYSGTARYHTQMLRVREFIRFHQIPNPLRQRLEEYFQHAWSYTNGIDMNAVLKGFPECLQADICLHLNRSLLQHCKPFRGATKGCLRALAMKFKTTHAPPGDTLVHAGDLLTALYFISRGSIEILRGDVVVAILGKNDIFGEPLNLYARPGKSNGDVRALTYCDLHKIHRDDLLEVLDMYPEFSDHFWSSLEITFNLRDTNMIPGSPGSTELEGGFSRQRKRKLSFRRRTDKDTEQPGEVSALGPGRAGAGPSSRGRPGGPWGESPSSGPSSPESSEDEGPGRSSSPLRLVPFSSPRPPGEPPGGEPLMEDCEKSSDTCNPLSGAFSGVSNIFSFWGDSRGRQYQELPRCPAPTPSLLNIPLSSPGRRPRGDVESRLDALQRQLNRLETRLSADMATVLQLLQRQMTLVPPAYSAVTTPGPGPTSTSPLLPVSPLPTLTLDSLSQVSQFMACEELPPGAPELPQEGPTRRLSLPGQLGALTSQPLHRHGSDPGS

SMILES	pKi [1]	pIC50 [2]	pIC50 [3]	pIC50 [4]	Activity [5] [%]	pIC50 [6]	logD [7]	Activity [8] [%]	Activity [9]	Activity [10]	Activity [11]	Ratio IC50 [12]	solubility [13] [µM]	pKi [6]	Activity [14]
O=C(O)C[C@H]1CC[C@H](OC2CCN(c3ccc(-c4nc5c(F)cccc5[nH]4)cn3)CC2)CC1	4.97	< 5.00	8.10	7.67	92	6.04									
O=C(O)C[C@H]1CC[C@H](OC2CCN(c3ccc(-c4nc5c(F)cc(F)cc5[nH]4)cn3)CC2)CC1	5.39	< 5.00	8.39	7.96	65	6.28									
O=C(O)C1CC1COc1ccc(-c2ccc(-c3nc4cc(Cl)ccc4[nH]3)cn2)cn1 (racemic)	4.72	< 5.70	8.44	7.52			1.19	91							
O=C(O)C[C@H]1CC[C@H](OC2CCN(c3ccc(-c4nc5ccccc5[nH]4)cn3)CC2)CC1	4.59	< 5.00	7.82	7.38	85	< 5.00			Toxic	Toxic	Toxic				
O=C(O)C1(CNc2ccc(-c3ccc(-c4nc5cc(Cl)ccc5[nH]4)cn3)cn2)CC1	4.92	< 5.00	8.54	7.70			1.33	0							
CC1(C(=O)O)CCN(c2ccc(-c3ccc(-c4nc5cc(Cl)ccc5[nH]4)cn3)cn2)CC1	5.32	< 5.00	8.60	7.70			1.45	96				> 4000			
O=C(O)c1ccc(Oc2ccc(-c3ccc(-c4nc5cc(Cl)ccc5[nH]4)cn3)cn2)cc1	5.87	5.71	8.89	8.36			1.49						< 1		
O=C(O)C1CCC2(CCN(c3ccc(-c4nc5cc(C(F)(F)F)ccc5[nH]4)cn3)CC2)OC1 (racemic)		< 5.00												< 5.00	
O=C(O)C[C@H]1CC[C@@H](Oc2ccc(-c3ccc(-c4nc5cc(C(F)(F)F)cnc5[nH]4)cn3)cn2)CC1	4.63	< 5.70	8.15	8.02	92	6.01									Active
Oc1ccc(-c2ccc(-c3nc4cc(C(F)(F)F)ccc4[nH]3)cc2)cn1	5.65	5.42	8.19									> 500			
O=C(O)C[C@H]1CC[C@@H](Oc2ccc(-c3ccc(-c4nc5ccccc5[nH]4)cn3)cn2)CC1	4.57	< 5.70	8.28	8.28	92	6.35									Active
O=C(O)C[C@H]1CC[C@@H](Oc2ccc(-c3ccc(-c4nc5cc(F)ccc5[nH]4)cn3)cn2)CC1	5.09	< 5.70	8.62	8.49	109	6.38									
O=C(O)C1CC(Oc2ccc(-c3ccc(-c4nc5cc(Cl)ccc5[nH]4)cn3)cn2)C1 (racemic)	4.69	< 5.70	8.46	7.62			1.16	54							
N#Cc1ccc2[nH]c(-c3ccc(-c4ccc(O[C@H]5CC[C@@H](CC(=O)O)CC5)nc4)nc3)nc2c1	5.57	< 5.00	8.44	7.75	63	6.37									
O=C(O)[C@H]1CC[C@H](Oc2ccc(-c3ccc(-c4nc5cc(Cl)ccc5[nH]4)cn3)cn2)CC1	5.45	5.71	8.59	8.20			1.39	83							
O=C(O)C[C@H]1CC[C@H](OC2CCN(c3ccc(-c4nc5cc(C(F)(F)F)ccc5[nH]4)cn3)CC2)CC1	5.31	< 5.00	8.70	8.34	57	5.74									
O=C(O)[C@H]1CC[C@@H](OC2CCN(c3ccc(-c4nc5cc(F)ccc5[nH]4)cn3)CC2)CC1		< 5.00												< 5.00	
O=C(O)C[C@H]1CC[C@H](OC2CCN(c3ccc(-c4nc5cc(Cl)ccc5[nH]4)cn3)CC2)CC1	5.35	< 5.00	8.51	7.66		6.17									
CC1(C)CN(c2ccc(-c3ccc(-c4nc5cc(Cl)ccc5[nH]4)cn3)cn2)CCC1CC(=O)O (racemic)	5.76	< 5.70	8.35	7.48			1.56	66							
O=C(O)C1CCC(Nc2ccc(-c3ccc(-c4nc5cc(Cl)ccc5[nH]4)cn3)cn2)CC1 (racemic)	5.43	< 5.70	8.27	7.32			1.37	70							
O=C(O)C1(COc2ccc(-c3ccc(-c4nc5cc(Cl)ccc5[nH]4)cn3)cn2)CC1	4.97	5.78	8.51	7.96			1.35	50							
O=C(O)C1CCCCC1Nc1ccc(-c2ccc(-c3nc4cc(Cl)ccc4[nH]3)cn2)cn1 (racemic)	5.45	< 5.00	8.38	7.68			1.51	0							
CC1(C(=O)O)CCCN(c2ccc(-c3ccc(-c4nc5cc(Cl)ccc5[nH]4)cn3)cn2)C1 (racemic)	5.70	< 5.70	8.35	7.44			1.43	63							
Cc1ccc2[nH]c(-c3ccc(-c4ccc(O[C@H]5CC[C@@H](CC(=O)O)CC5)nc4)nc3)nc2n1	< 4.22	< 5.00	7.51			6.31									
COc1ccc2[nH]c(-c3ccc(-c4ccc(O[C@H]5CC[C@@H](CC(=O)O)CC5)nc4)nc3)nc2n1	4.42	< 5.70	7.94	8.01	96	5.92									Active
O=C(O)CC1CCN(c2ccc(-c3ccc(-c4nc5cc(Cl)ccc5[nH]4)cn3)cn2)CC1	5.28	< 5.70	7.99	6.97			1.48	62							
O=C(O)C1(COc2ccc(-c3ccc(-c4nc5cc(Cl)ccc5[nH]4)cn3)cn2)COC1	5.18	< 5.00	8.28	7.44			1.16	87							
O=C(O)C1(COc2ccc(-c3ccc(-c4nc5cc(Cl)ccc5[nH]4)cn3)cn2)CCC1	4.70	5.76	8.77	8.30			1.24	89							

— ChEMBL document CHEMBL4390688, “Accelerating the discovery of DGAT1 inhibitors through the application of parallel medicinal chemistry (PMC)” (Bioorg Med Chem Lett, 2019)
